How the values were obtained:
[1] = tested on: HL-60, a human promyelocytic leukemia cell line; settings: read-out: IC50 (nM) HL60 cell (Ag+); MTT, 120 hours incubation
Protocol: (§1) The cell lines used in the cytotoxicity assays were HL-60, a human promyelocytic leukemia cell line; NCI-N87, a human gastric carcinoma cell line; BT-474, a human invasive ductal carcinoma cell line; and SKOV3, a human ovarian carcinoma cell line. For HL-60, NCI-N87, and BT-474 cells, the cells were grown in RPMI-1640 with 10% FBS. For SKOV3 cells, the cells were grown in McCoy's 5A Medium with 10% FBS. To run the assay, the cells (180 μl, 6000 cells) were added to each well in a 96-well plate and incubated for 24 hours at 37° C. with 5% CO2. Next, the cells were treated with test compounds (20 μl) at various concentrations in appropriate cell culture medium (total volume, 0.2 mL). The control wells contain cells and the medium but lack the test compounds. The plates were incubated for 120 hours at 37° C. with 5% CO2. MTT (5 mg/ml) was then added to the wells (20 μl) and the plates were incubated for 1.5 hr at 37° C. The medium was carefully removed and DMSO (180 μl) was added afterward. After it was shaken for 15 min, the absorbance was measured at 490 nm and 570 nm with a reference filter of 620 nm. The inhibition % was calculated according to the following equation: inhibition %=[1-(assay-blank)/(control-blank)]×100.

[2] = tested on: NCI-N87, a human gastric carcinoma cell line
Protocol: as §1

[3] = tested on: SKOV3, a human ovarian carcinoma cell line
Protocol: as §1

[4] = tested on: human gastric carcinoma N-87 cell line tumor xenograft; settings: one injection
Protocol: Five-week-old female BALB/c Nude mice (24 animals) were inoculated subcutaneously in the area under the right shoulder with N-87 carcinoma cells (5×10^6 cells/mouse) in 0.1 mL of serum-free medium. The tumors were grown for 8 days to an average size of 130 mm^3. The animals were then randomly divided into 4 groups (6 animals per group). The first group of mice served as the control group and was treated with the phosphate-buffered saline vehicle. […] Three dimensions of the tumor were measured every 4 days and the tumor volumes were calculated using the formula tumor volume=½ (length×width×height). The weight of the animals was also measured at the same time. A mouse was sacrificed when any one of the following criteria was met: (1) loss of body weight of more than 20% from pretreatment weight, (2) tumor volume larger than 1500 mm^3, (3) too sick to reach food and water, or (4) skin necrosis. A mouse was considered to be tumor-free if no tumor was palpable.

With T-DM1 the IC50 [1] was > 15 nM, the “Specificity for N87 cell” value ([2]; IC50 HL60 / IC50 N87) was “over 55” and the IC50 ([2]; read-out: IC50 (nM) N87 cell (Ag+), MTT, 120 hours incubation) was 0.27 nM. For the same substance, the “Specificity for SK-OV-3 cell” value ([3]; IC50 HL60 / IC50 SK-OV-3) was “over 78”, the IC50 ([3]; read-out: IC50 (nM) SK-OV-3 cell (Ag+), MTT, 120 hours incubation) was 0.191 nM and the “Animals with no tumor measurable” value ([4]; 5 mg/Kg intravenously, 6 animals per group) was 2/6. For the same substance, the “Anti-tumor effect (FIG. 11)” value ([4]; 5 mg/kg, i.v.) was “did not completely eliminate the tumor” and the “Duration of tumor growth inhibition” value ([4]; 5 mg/kg, i.v.) was 44 days.

Reference: patent US10293055B2, “Acetylenedicarboxyl linkers and their uses in specific conjugation of a cell-binding molecule” (SUZHOU M-CONJ BIOTECH CO., LTD., priority 2015, dated 2019)
